Data on 63 molecules can be found in patent US9556158B2, “Fungicidal 3-[(pyridin-2-ylmethoxyimino)(phenyl)methyl]-2-substituted-1,2,4-oxadiazol-5(2H)-one derivatives” (BAYER INTELLECTUAL PROPERTY GMBH, priority 2011, dated 2017).

The conditions of the data set: HPLC on reversed phase columns, pH 2.7, 0.1% formic acid in water / acetonitrile gradient; for chromatographic logP: pH 2.7, LogP.
Where [1] appears, read: compounds of formula (V), Table 2.

Each structure is given as a SMILES string. Read-outs that look alike come from different tables or passages of the source.

Consider `Cn1oc(=O)nc1C(=NOCc1cccc(NC(=O)OCC2CC2)n1)c1ccccc1` [Example 180], for which the chromatographic logP (as a rule, a lipophilicity value derived from retention on a column) came out at 3.04.
The molecule `CC(C)CC(=O)Nc1cccc(CON=C(c2cccc(F)c2)c2nc(=O)on2C)n1` [Example 90] showed a chromatographic logP of 2.92.
On the same count and under the same terms, the same measure for `C=CCCCCOC(=O)Nc1cccc(CON=C(c2ccccc2)c2nc(=O)on2C)n1` [Example 123]: 3.76; for `Cn1oc(=O)nc1C(=NOCc1cccc(NC(=O)OCCC2CCCC2)n1)c1ccccc1` [Example 118]: 4.26.
On the same count and under the same terms, with `CC(OC(=O)Nc1cccc(CON=C(c2ccccc2)c2nc(=O)on2C)n1)C1CCCCC1` (stereo not drawn) [Example 141] the figure was 4.56.
Same read-out and setting: with `Cn1oc(=O)nc1C(=NOCc1cccc(NC(=O)OCCCCl)n1)c1ccccc1` [Example 133] the figure was 3.02; with `CCC#CCOC(=O)Nc1cccc(CON=C(c2ccccc2)c2nc(=O)on2C)n1` [Example 137], 3.21.
As to `C#CCOC(=O)Nc1cccc(CON=C(c2cccc(OC)c2)c2nc(=O)on2C)n1` [Example 95], the chromatographic logP is 2.63.
For `Cc1cccc(C(=NOCc2cccc(NC(=O)CCc3ccccc3)n2)c2nc(=O)on2C)c1` [Example 79], the chromatographic logP turned out to be 3.48.
For the molecule `Cn1oc(=O)nc1C(=NOCc1cccc(NC(=O)OC(C)(C)C)n1)c1cccc(F)c1F` [Example 187], the LogP (in general, a log measure of how a compound divides between an organic and an aqueous phase) came out at 3.33.
`C/C=C/CCCOC(=O)Nc1cccc(CON=C(c2ccccc2)c2nc(=O)on2C)n1` [Example 183] had a chromatographic logP of 3.81.
As for `CCCCCC(=O)Nc1cccc(CON=C(c2ccccc2)c2nc(=O)on2CC)n1` [Example 174], the chromatographic logP came out at 3.52.
`Cn1oc(=O)nc1C(=NOCc1cccc(NC(=O)OCCc2ccccc2)n1)c1cccc(F)c1` [Example 165]: the chromatographic logP was 3.65.
The same measure, in the same setting: with `CC(OC(=O)Nc1cccc(CON=C(c2ccccc2)c2nc(=O)on2C)n1)C1CCCC1` (stereo not drawn) [Example 179] the figure was 4.15; with `Cn1oc(=O)nc1C(=NOCc1cccc(NC(=O)OCCCC2CCCC2)n1)c1ccccc1` [Example 130], 4.68.
Molecule `Cc1cccc(C(=NOCc2cccc(NC(=O)OCCc3ccccc3)n2)c2nc(=O)on2C)c1` [Example 168] yielded a chromatographic logP of 3.85.
Still for that read-out and setting: the same measure for `C#CCCCOC(=O)Nc1cccc(CON=C(c2ccccc2)c2nc(=O)on2C)n1` [Example 122]: 2.94.
On the same count and under the same terms, with `Cn1oc(=O)nc1C(=NOCc1cccc(NC(=O)CC2CCCC2)n1)c1ccccc1` [Example 115] the figure was 3.29; with `Cn1oc(=O)nc1/C(=N\OCc1cccc(Br)n1)c1ccccc1` [Example 193, 3-[(Z)-{[(6-bromopyridin-2-yl)methoxy]imino}(phenyl)methyl]-2-methyl-1,2,4-oxadiazol-5(2H)-one], 2.75.
Consider `CN(O)C(=N)/C(=N\OCc1cccc(Br)n1)c1ccccc1` [Example V-12, (2Z)-2-{[(6-bromopyridin-2-yl)methoxy]imino}-N-hydroxy-N-methyl-2-phenylethanimidamide], for which the chromatographic logP under setting [1] was found to be 1.39.
For the molecule `C#CCCCCOC(=O)Nc1cccc(CON=C(c2ccccc2)c2nc(=O)on2C)n1` [Example 124], the chromatographic logP was 3.21.
`CC(C(=O)Nc1cccc(CON=C(c2ccccc2)c2nc(=O)on2C)n1)c1ccccc1` (stereo not drawn) [Example 155] registered a chromatographic logP of 3.29.
Same read-out and setting: with `Cn1oc(=O)nc1C(=NOCc1cccc(NC(=O)COc2ccccc2)n1)c1ccccc1` [Example 139] the figure was 3.13; with `Cn1oc(=O)nc1C(=NOCc1cccc(NC(=O)OCCCC2CCCCC2)n1)c1ccccc1` [Example 153], 5.06; with `Cn1oc(=O)nc1C(=NOCc1cccc(NC(=O)c2ccc(F)cc2)n1)c1ccccc1` [Example 157], 3.04.
Still for that read-out and setting: the same measure for `Cn1oc(=O)nc1C(=NOCc1cccc(NC(=O)C2CCCCC2)n1)c1ccccc1` [Example 146]: 3.29.
On the same count and under the same terms, with `Cn1oc(=O)nc1C(=NOCc1cccc(NC(=O)OCc2ccccc2)n1)c1cccc(F)c1` [Example 163] the figure was 3.5.
The molecule `Cn1oc(=O)nc1C(=NOCc1cccc(NC(=O)c2csc3ccccc23)n1)c1ccccc1` [Example 142] returned a chromatographic logP of 3.65.
Still for that read-out and setting: the same measure for `CC#CCOC(=O)Nc1cccc(CON=C(c2ccccc2)c2nc(=O)on2C)n1` [Example 134]: 2.84.
Under setting [1], `CN(O)C(=N)C(=NOCc1cccc(NC(=O)OC(C)(C)C)n1)c1ccccc1C(F)F` [Example V-11] returned a chromatographic logP of 2.43.
The molecule `Cc1cccc(C(=NOCc2cccc(NC(=O)OCc3ccccc3)n2)c2nc(=O)on2C)c1` [Example 167] displayed a chromatographic logP of 3.68.
On the same count and under the same terms, the same measure for `COc1cccc(C(=NOCc2cccc(NC(=O)Cc3ccccc3)n2)c2nc(=O)on2C)c1` [Example 166]: 3.02.
The same measure, in the same setting: the same measure for `CCCCOC(=O)Nc1cccc(CON=C(c2cccc(F)c2F)c2nc(=O)on2C)n1` [Example 188]: 3.46.
Take `CCN(O)C(=N)/C(=N\OCc1cccc(NC(=O)OC(C)(C)C)n1)c1ccccc1` [Example V-08, tert-butyl (6-{[({(1Z)-2-[hydroxy(ethyl)amino]-2-imino-1-(phenyl)ethylidene}amino)oxy]methyl}pyridin-2-yl)carbamate]: the chromatographic logP under setting [1] was 1.9.
Consider `CC(C)n1oc(=O)nc1C(=NOCc1cccc(NC(=O)OC(C)(C)C)n1)c1ccccc1` [Example 41], for which the chromatographic logP came out at 3.8.
As to `Cc1cccc(C(=O)Nc2cccc(CON=C(c3ccccc3)c3nc(=O)on3C)n2)c1` [Example 128], the chromatographic logP amounted to 3.27.
Still for that read-out and setting: with `Cn1oc(=O)nc1C(=NOCc1cccc(NC(=O)OCC(C)(C)C)n1)c1ccccc1` [Example 121] the figure was 3.7.
The same measure, in the same setting: the same measure for `Cn1oc(=O)nc1C(=NOCc1cccc(NC(=O)Cc2ccccc2)n1)c1ccccc1` [Example 126]: 2.94; for `Cc1ccc(C(=O)Nc2cccc(CON=C(c3cccc(F)c3)c3nc(=O)o[nH]3)n2)cc1` [Example 77]: 3.33.
As for `Cc1cccc(C(=NOCc2cccc(NC(=O)OC(C)(C)C)n2)C(=N)N(C)O)c1` [Example V-04], the chromatographic logP under setting [1] was found to be 1.93.
On to `CCCCCC(=O)Nc1cccc(CON=C(c2ccccc2)c2nc(=O)on2CCOC)n1` [Example 175], for which the chromatographic logP is 3.5.
The molecule `COc1cccc(C(=O)Nc2cccc(CON=C(c3ccccc3)c3nc(=O)on3C)n2)c1` [Example 132] returned a chromatographic logP of 3.02.
Still for that read-out and setting: the same measure for `Cn1oc(=O)nc1C(=NOCc1cccc(NC(=O)OCCCCCl)n1)c1ccccc1` [Example 143]: 3.27; for `Cc1cccc(C(=NOCc2cccc(NC(=O)Cc3cccc(F)c3)n2)c2nc(=O)on2C)c1` [Example 98]: 3.31; for `C#CCC(C)OC(=O)Nc1cccc(CON=C(c2ccccc2)c2nc(=O)on2C)n1` (stereo not drawn) [Example 125]: 2.98.
For `C=CCC(C)OC(=O)Nc1cccc(CON=C(c2ccccc2)c2nc(=O)on2C)n1` (stereo not drawn) [Example 152], the chromatographic logP is 3.39.
Molecule `Cn1oc(=O)nc1C(=NOCc1cccc(NC(=O)OCC2CCCCC2)n1)c1ccccc1` [Example 127] had a chromatographic logP of 4.24.
Still for that read-out and setting: with `Cn1oc(=O)nc1C(=NOCc1cccc(NC(=O)c2ccccc2)n1)c1ccccc1` [Example 160] the figure was 2.92.
The same measure, in the same setting: the same measure for `Cn1oc(=O)nc1C(=NOCc1cccc(NC(=O)C2CCCC2)n1)c1ccccc1` [Example 117]: 2.98; for `COc1cccc(C(=NOCc2cccc(NC(=O)c3ccccc3)n2)c2nc(=O)o[nH]2)c1` [Example 67]: 2.96.
Still for that read-out and setting: the same measure for `CCCCC(C)C(=O)Nc1cccc(CON=C(c2ccccc2)c2nc(=O)on2C)n1` (stereo not drawn) [Example 144]: 3.55.
For `COc1cccc(C(=NOCc2cccc(NC(=O)OC(C)(C)C)n2)C(=N)N(C)O)c1` [Example V-06], under setting [1], the chromatographic logP was 1.86.
Regarding `Cc1cccc(C(=NOCc2cccc(NC(=O)Cc3ccccc3)n2)c2nc(=O)on2C)c1` [Example 81], the chromatographic logP was found to be 3.23.
In the case of `C#CCCOC(=O)Nc1cccc(CO/N=C(\C(=N)N(C)O)c2ccccc2)n1` [Example V-01, but-3-yn-1-yl (6-{[({(1Z)-2-[hydroxy(methyl)amino]-2-imino-1-phenylethylidene}amino)oxy]methyl}pyridin-2-yl)carbamate], the chromatographic logP under setting [1] was determined as 1.63.
Molecule `COc1cccc(C(=NOCc2cccc(NC(=O)c3ccc(F)cc3)n2)c2nc(=O)o[nH]2)c1` [Example 62] had a chromatographic logP of 3.09.
In turn, `CN(O)C(=N)/C(=N\OCc1cccc(NC(=O)OC(C)(C)C)n1)c1cccc(F)c1` [Example V-05, tert-butyl (6-{[({(1Z)-2-[hydroxy(methyl)amino]-2-imino-1-(3-fluorophenyl)ethylidene}amino)oxy]methyl}pyridin-2-yl)carbamate] displayed a chromatographic logP under setting [1] of 1.86.
Turning to `COc1cccc(C(=NOCc2cccc(NC(=O)OCCc3ccccc3)n2)c2nc(=O)on2C)c1` [Example 162], the chromatographic logP was 3.61.
Under setting [1], `CN(O)C(=N)C(=NOCc1cccc(NC(=O)OC(C)(C)C)n1)c1cccc(F)c1F` [Example V-10] showed a chromatographic logP of 1.9.
Molecule `Cn1oc(=O)nc1C(=NOCc1cccc(NC(=O)c2ccccc2)n1)c1cccc(F)c1` [Example 89] showed a chromatographic logP of 3.
Same read-out and setting: with `Cn1oc(=O)nc1C(=NOCc1cccc(NC(=O)Cc2cccs2)n1)c1ccccc1` [Example 135] the figure was 2.86; with `Cn1oc(=O)nc1C(=NOCc1cccc(NC(=O)OCCCC2CC2)n1)c1ccccc1` [Example 181], 3.76; with `Cc1cccc(C(=O)Nc2cccc(CON=C(c3cccc(C)c3)c3nc(=O)on3C)n2)c1` [Example 86], 3.55.
Still for that read-out and setting: the same measure for `CC(C)CCOC(=O)Nc1cccc(CON=C(c2ccccc2)c2nc(=O)on2C)n1` [Example 161]: 3.74.
